Reference: ChEMBL document CHEMBL1201862, “PubChem BioAssay data set” (2004)
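Growth conditions: 96-well plates. Treatment: test compound, 48 hours, 5 concentrations. Analysis: linear interpolation between bracketing concentrations; unreached endpoints set to highest concentration. The concentration for 50% growth inhibition is given as GI50.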 Activity calls are given as the source filed them. No stated cut-off is given here; in the data, active = GI50 up to about 1.1 µM and inactive = higher.

Key:
Experiment in all cases: DTP human tumour cell line panel, 48 h
U-251 = system: U-251
SF-295 = system: SF-295
HCT-15 = system: HCT-15
SNB-75 = system: SNB-75
SR = system: SR
UACC-257 = system: UACC-257
CCRF-CEM = system: CCRF-CEM
SF-268 = system: SF-268
SF-539 = system: SF-539
SNB-19 = system: SNB-19
SW-620 = system: SW-620
UO-31 = system: UO-31
HCT-116 = system: HCT-116
HOP-92 = system: HOP-92
OVCAR-4 = system: OVCAR-4

| Structure (SMILES) | GI50 (U-251) | GI50 (SF-295) | GI50 (HCT-15) [µM] | GI50 (SNB-75) | GI50 (SR) | GI50 (UACC-257) | GI50 (CCRF-CEM) | GI50 (SF-268) | GI50 (SF-539) | GI50 (SNB-19) | GI50 (SW-620) | GI50 (UO-31) | GI50 (HCT-116) | GI50 (HOP-92) | GI50 (OVCAR-4) |
| --- | --- | --- | --- | --- | --- | --- | --- | --- | --- | --- | --- | --- | --- | --- | --- |
| Cc1ccc(C2=C(c3ccccc3)C(=O)C(c3ccccc3)=C2c2ccc(C)cc2)cc1 | 25.1 µM (inactive) | 18.4 µM (inactive) | 32.4 | 87.3 µM (inactive) | 58.5 µM (inactive) | 39.4 µM (inactive) | 17.2 µM (inactive) | 32.1 µM (inactive) | 18.3 µM (inactive) | 54.3 µM (inactive) | 37.9 µM (inactive) | > 100 µM (inactive) | 31.4 µM (inactive) |  |  |
| CSc1nc2nc(C(O)C(O)C(O)CO)cnc2c(=O)[nH]1 (centres undefined) | > 100 µM (inactive) | > 100 µM (inactive) | > 100 | > 100 µM (inactive) |  | > 100 µM (inactive) | > 100 µM (inactive) | > 100 µM (inactive) | > 100 µM (inactive) | > 100 µM (inactive) | > 100 µM (inactive) | > 100 µM (inactive) | > 100 µM (inactive) |  |  |
| CCOC(=O)Cn1c(=O)n(C)c(=O)c2c1ncn2Cc1ccccc1 | > 100 µM (inactive) |  | > 100 | > 100 µM (inactive) | > 100 µM (inactive) |  | > 100 µM (inactive) | > 100 µM (inactive) | > 100 µM (inactive) | > 100 µM (inactive) | > 100 µM (inactive) | > 100 µM (inactive) | > 100 µM (inactive) | > 100 µM (inactive) |  |
| CC(Oc1ccc(OCC2CCCCC2)cc1)C(=O)NCCO (centres undefined) | > 100 µM (inactive) | 23.4 µM (inactive) | > 100 | > 100 µM (inactive) |  | 49.7 µM (inactive) | > 100 µM (inactive) | > 100 µM (inactive) | > 100 µM (inactive) | > 100 µM (inactive) |  | 56.4 µM (inactive) | > 100 µM (inactive) |  | > 100 µM (inactive) |
| CCOC(=O)NC(=O)c1cn(CCN2CCN(C(=O)CCCCCCCCCCNc3ncnc4c3ncn4C3OC(CO)C(O)C3O)CC2)c(=O)[nH]c1=O (centres undefined) | > 100 µM (inactive) | > 100 µM (inactive) | > 100 | > 100 µM (inactive) | > 100 µM (inactive) | > 100 µM (inactive) | > 100 µM (inactive) | > 100 µM (inactive) |  | > 100 µM (inactive) | > 100 µM (inactive) | > 100 µM (inactive) | > 100 µM (inactive) | 70.3 µM (inactive) |  |
| CC(=O)C1=CSC2[C@H](NC(=O)Cc3ccccc3)C(=O)N2C1C(=O)OC(c1ccccc1)c1ccccc1 (some centres undefined) |  | 40.7 µM (inactive) |  | 56.2 µM (inactive) | 36.7 µM (inactive) | > 100 µM (inactive) | 23.1 µM (inactive) | 47.6 µM (inactive) | > 100 µM (inactive) | > 100 µM (inactive) | 93.5 µM (inactive) | > 100 µM (inactive) | > 100 µM (inactive) | 46.5 µM (inactive) | > 100 µM (inactive) |
| CC(C)C(Sc1nc(-c2ccccc2)c(-c2ccccc2)[nH]1)C(=O)NN (centres undefined) | > 100 µM (inactive) | 74.3 µM (inactive) | > 100 | > 100 µM (inactive) |  | > 100 µM (inactive) | 31.6 µM (inactive) | > 100 µM (inactive) | > 100 µM (inactive) | > 100 µM (inactive) | > 100 µM (inactive) | > 100 µM (inactive) | > 100 µM (inactive) | 73.1 µM (inactive) | > 100 µM (inactive) |
| COc1ccc(/C=N\O[Si](C)(C)C(C)(C)C)cc1O[Si](C)(C)C(C)(C)C | 19.7 µM (inactive) | 17.2 µM (inactive) | 18.2 | 22.3 µM (inactive) |  | 20.8 µM (inactive) | 21.6 µM (inactive) | 21.5 µM (inactive) | 18.5 µM (inactive) | 18.9 µM (inactive) | 18.7 µM (inactive) | 14.7 µM (inactive) | 15.7 µM (inactive) | 22.6 µM (inactive) | 19 µM (inactive) |
| O=C1CCN(CCC(F)(F)C(F)(F)C(F)(F)C(F)(F)F)C(=S)N1 | > 100 µM (inactive) | > 100 µM (inactive) | > 100 | > 100 µM (inactive) | > 100 µM (inactive) |  | > 100 µM (inactive) | > 100 µM (inactive) | > 100 µM (inactive) | > 100 µM (inactive) | > 100 µM (inactive) | > 100 µM (inactive) | > 100 µM (inactive) |  | > 100 µM (inactive) |
| Cc1[nH]nc2c1C(=O)C=C(N(CCO)c1ccccc1)C2=O | > 100 µM (inactive) | > 100 µM (inactive) | > 100 | 88.9 µM (inactive) |  | > 100 µM (inactive) | > 100 µM (inactive) |  | > 100 µM (inactive) | > 100 µM (inactive) | > 100 µM (inactive) | > 100 µM (inactive) | > 100 µM (inactive) | > 100 µM (inactive) |  |
| COC(=O)c1cc(OC(C)=O)c2c(OC)ccc(OC)c2c1 | > 100 µM (inactive) | > 100 µM (inactive) | 64.6 | 39.5 µM (inactive) | 86.1 µM (inactive) | > 100 µM (inactive) |  |  | > 100 µM (inactive) |  | > 100 µM (inactive) |  | > 100 µM (inactive) | > 100 µM (inactive) | > 100 µM (inactive) |
| C=CCCc1cc(OC)ccc1CN(C)C(C)(C)CO | > 100 µM (inactive) | > 100 µM (inactive) | > 100 | 85.7 µM (inactive) | > 100 µM (inactive) | > 100 µM (inactive) | > 100 µM (inactive) | > 100 µM (inactive) | > 100 µM (inactive) | > 100 µM (inactive) | > 100 µM (inactive) |  | > 100 µM (inactive) | > 100 µM (inactive) | > 100 µM (inactive) |
| COc1cc(C(=O)Nc2cccc3ccccc23)c(Br)c(OC)c1OC | > 100 µM (inactive) | > 100 µM (inactive) | > 100 | 62.2 µM (inactive) | > 100 µM (inactive) | > 100 µM (inactive) | 33.9 µM (inactive) | 97.1 µM (inactive) | > 100 µM (inactive) | > 100 µM (inactive) | > 100 µM (inactive) | 31.4 µM (inactive) | 67.9 µM (inactive) | 42.2 µM (inactive) | 16.5 µM (inactive) |
| CC(=O)NNc1nc(C)c(C(/C=C/c2ccc(Cl)cc2)=N/NC(=S)NN)s1 | > 100 µM (inactive) | > 100 µM (inactive) | > 100 | > 100 µM (inactive) | > 100 µM (inactive) | > 100 µM (inactive) | > 100 µM (inactive) | > 100 µM (inactive) | > 100 µM (inactive) | > 100 µM (inactive) | > 100 µM (inactive) | > 100 µM (inactive) | > 100 µM (inactive) | > 100 µM (inactive) | > 100 µM (inactive) |
| COC(=O)/C(=N\NC(N)=S)C(C(=O)OC)C(=O)C(=O)Nc1ccc(C)cc1 (centres undefined) | > 100 µM (inactive) | > 100 µM (inactive) | > 100 | 41.9 µM (inactive) | > 100 µM (inactive) | > 100 µM (inactive) | > 100 µM (inactive) | > 100 µM (inactive) | > 100 µM (inactive) | > 100 µM (inactive) | > 100 µM (inactive) | > 100 µM (inactive) | > 100 µM (inactive) |  | > 100 µM (inactive) |
| Sc1nnc(COc2ccc(Cl)cc2)[nH]1 | > 100 µM (inactive) | > 100 µM (inactive) | > 100 | > 100 µM (inactive) |  | > 100 µM (inactive) | > 100 µM (inactive) | > 100 µM (inactive) | > 100 µM (inactive) | > 100 µM (inactive) | > 100 µM (inactive) | > 100 µM (inactive) | > 100 µM (inactive) | > 100 µM (inactive) | > 100 µM (inactive) |
| Cn1c2c(c3ccccc31)CCN(CCCN1CCN(c3cccc(Cl)c3)CC1)C2=O | 3.27 µM (inactive) |  | 25.1 |  |  |  | 31.5 µM (inactive) | 15.6 µM (inactive) | 18.1 µM (inactive) | 27.4 µM (inactive) | 28 µM (inactive) | 11 µM (inactive) | 12.3 µM (inactive) | 3.91 µM (inactive) |  |
| CC1=NN(C(=O)c2ccc(Cl)cc2)C(=O)/C1=C/c1ccc(Cl)cc1 | > 100 µM (inactive) | > 100 µM (inactive) |  |  |  | > 100 µM (inactive) | > 100 µM (inactive) | > 100 µM (inactive) | > 100 µM (inactive) | > 100 µM (inactive) | > 100 µM (inactive) | > 100 µM (inactive) | > 100 µM (inactive) | > 100 µM (inactive) | > 100 µM (inactive) |
| CN(C)/N=N/c1ccc(C(N)=O)cc1 | > 100 µM (inactive) | > 100 µM (inactive) | > 100 | 97.7 µM (inactive) | > 100 µM (inactive) | > 100 µM (inactive) | > 100 µM (inactive) | > 100 µM (inactive) | > 100 µM (inactive) | > 100 µM (inactive) | > 100 µM (inactive) | > 100 µM (inactive) | > 100 µM (inactive) | > 100 µM (inactive) | > 100 µM (inactive) |
| OCCCCn1cnc2c(O)ncnc21 |  | > 100 µM (inactive) | > 100 | > 100 µM (inactive) | > 100 µM (inactive) | > 100 µM (inactive) | > 100 µM (inactive) | > 100 µM (inactive) | > 100 µM (inactive) | > 100 µM (inactive) | > 100 µM (inactive) | > 100 µM (inactive) | > 100 µM (inactive) | > 100 µM (inactive) | > 100 µM (inactive) |
| COc1cc(C(=O)O)cc2c1[nH]c1ccccc12 [MUKOEIC ACID] | > 25 µM (inactive) |  | > 25 |  | > 25 µM (inactive) |  | > 25 µM (inactive) | > 25 µM (inactive) | > 25 µM (inactive) | > 25 µM (inactive) | > 25 µM (inactive) | > 25 µM (inactive) | > 25 µM (inactive) | > 25 µM (inactive) | > 25 µM (inactive) |
